# From publication PMC8617681 (Pharmaceuticals, 2021)
# “Also recorded” adds a separate entry of the source.
# Tests used:
# [1] = 4 h pharmacokinetic pilot study in wild-type, Abcb1a/1b;Abcg2-/- and Slco1a/1b-/- mice; format: in vivo; conditions: for abnormal external behavior (acute toxicity): 10 mg/kg oral
# Protocol: (§1) Mice were housed and handled according to institutional guidelines complying with Dutch and EU legislation. All experimental animal protocols were evaluated and approved by the institutional animal care and use committee. Wild-type, Abcb1a/1b^-/-, Abcg2^-/-, Abcb1a/1b; Abcg2^-/-, Slco1a/1b^-/- male mice, and Cyp3a^-/- and Cyp3aXAV female mice, all of a >99% FVB genetic background, were used between 9 and 16 weeks of age. […] All experimental animal protocols (WP9450, 9669, 9760), including power calculations, designed under the nationally approved DEC/CCD project AVD301002016595, were evaluated and approved by the institutional animal care and use committee of The Netherlands Cancer Institute. […]
# (§2) For the 4 h transporter experiments, tail-vein blood samples were collected at 0.125, 0.25, 0.5, 1, and 2 h time points after oral administration, respectively. For the CYP3A 8 h experiments, tail-vein blood sampling was performed at 0.25, 0.5, 1, 2, and 4 h, respectively. While for elacridar inhibition experiments, tail-vein blood samples were collected at 0.125, 0.25, 0.5, and 1 h time points after oral administration, respectively. Blood sample collection was performed using microvettes containing dipotassium EDTA. At the last time point in each experiment (2, 4 or 8 h), mice were anesthetized with 5% isoflurane and blood was collected by cardiac puncture. Blood samples were collected in Eppendorf tubes containing heparin as an anticoagulant. The mice were then sacrificed by cervical dislocation and brain, liver, kidney, lung, small intestine and testis were rapidly removed. Plasma was isolated from the blood by centrifugation at 9000× g for 6 min at 4 °C, and the plasma fraction was collected and stored at −30 °C until analysis. Organs were homogenized with 4% (w/v) bovine serum albumin and stored at −30 °C until analysis.
# (§3) Pharmacokinetic parameters were calculated by noncompartmental methods using the PK solver software. The area under the plasma concentration–time curve (AUC) was calculated using the trapezoidal rule, without extrapolating to infinity. The peak plasma concentration (Cmax) and the time of maximum plasma concentration (Tmax) were estimated from the original (individual mouse) data. One-way analysis of variance (ANOVA) was used when multiple groups were compared and the Tukey post hoc correction was used to accommodate multiple testing. The two-sided unpaired Student’s t-test was used when treatments or differences between two specific groups were compared using the software GraphPad Prism 8 (GraphPad Software Inc., La Jolla, CA, USA). All the data were log-transformed before statistical tests were applied. Differences were considered statistically significant when p < 0.05. All data are presented as geometric mean ± SD.
# [2] = 4 h main pharmacokinetic experiment in wild-type, Abcb1a/1b-/-, Abcg2-/- and Abcb1a/1b;Abcg2-/- mice; format: in vivo; conditions: 10 mg/kg oral, 4 h main experiment; for Cmax / Tmax / concentration at 4 h / AUC(0-t): mouse; for Cmax / Tmax / AUC(0-t): plasma; for concentration at 4 h / AUC(0-t): male, po, 10 mg/kg; for AUC(0-t): read-out: AUC0–4h
# Protocol: as §1, §2, §3
# [3] = 8 h pharmacokinetic study in wild-type, Cyp3a-/- and Cyp3aXAV mice; conditions: mouse, in vivo, po, 10 mg/kg; for concentration at 8 h / AUC(0-t) / Cmax / Tmax / SIC percentage of dose: female; for SIC percentage of dose: 8 h
# Protocol: Many drugs and prodrugs are metabolized by CYP3A, which can therefore restrict their oral exposure.
# as §1, §2, §3
# [4] = patients; cited from earlier work
# [5] = tested on: RET fusion-positive cancers; conditions: clinical phase 1 study; cited from earlier work
# [6] = tested on: RET-mutant medullary thyroid cancer; conditions: clinical phase 1 study; cited from earlier work
# CNS metastasis = conditions: 11 patients with measurable CNS lesions, cited from earlier work
# [7] = male, FVB (Abcb1a/1b;Abcg2-/-), mouse, in vivo, po, 10 mg/kg, 4 h
# [8] = male, FVB (Slco1a/1b-/-), mouse, in vivo, po, 10 mg/kg, 4 h
# [9] = male, FVB background, Abcb1a/1b;Abcg2-/-, mouse, in vivo, po, 10 mg/kg
# [10] = male, FVB background, Slco1a/1b-/-, mouse, in vivo, po, 10 mg/kg
# [11] = male, FVB background, wild-type, mouse, in vivo, po, 10 mg/kg
# [12] = FVB (Abcb1a/1b-/-), male Abcb1a/1b-/- mice
# [13] = FVB (Abcb1a/1b;Abcg2-/-), male Abcb1a/1b;Abcg2-/- mice
# [14] = FVB (Abcg2-/-), male Abcg2-/- mice
# [15] = FVB (wild-type), male wild-type mice
structure (smiles),measurement,setting,value
COc1ccc(CN2C3CC2CN(c2ccc(-c4cc(OCC(C)(C)O)cn5ncc(C#N)c45)cn2)C3)cn1 [selpercatinib],abnormal external behavior (acute toxicity),[1]; Abcb1a/1b;Abcg2-/- mice,did not observe any abnormal external behavior
same,abnormal external behavior (acute toxicity),"[1]; Slco1a/1b-/- mice, 10 mg/kg",did not show any abnormal external behavior; also recorded: did not observe any abnormal external behavior
same,CSIC (small intestine contents concentration),[1]; [7],"34,929 ± 16,659 ng/g"
same,Cliver,[1]; [7],"19,077 ± 2696 ng/g"
same,concentration at 4 h,"[1]; male, FVB (Abcb1a/1b;Abcg2-/-), mouse, in vivo, po, 10 mg/kg, CSIC (small intestine contents concentration)",34900 ng/g
same,concentration at 4 h,"[1]; male, FVB (Abcb1a/1b;Abcg2-/-), mouse, in vivo, po, 10 mg/kg, Cbrain",3450 ng/g
same,concentration at 4 h,"[1]; male, FVB (Abcb1a/1b;Abcg2-/-), mouse, in vivo, po, 10 mg/kg, Cliver",19100 ng/g
same,concentration at 4 h,"[1]; male, FVB (Abcb1a/1b;Abcg2-/-), mouse, in vivo, po, 10 mg/kg, Ctestis",5730 ng/g
same,Cbrain,[1]; [8],278 ± 42 ng/g
same,Cliver,[1]; [8],"19,916 ± 3174 ng/g"
same,concentration at 4 h,"[1]; male, FVB (Slco1a/1b-/-), mouse, in vivo, po, 10 mg/kg, Cbrain",278 ± 42 ng/g
same,concentration at 4 h,"[1]; male, FVB (Slco1a/1b-/-), mouse, in vivo, po, 10 mg/kg, Cliver",19900 ng/g
same,concentration at 4 h,"[1]; male, FVB (Slco1a/1b-/-), mouse, in vivo, po, 10 mg/kg, Ctestis",1120 ng/g
same,Cliver,"[1]; male, FVB (wild-type), mouse, in vivo, po, 10 mg/kg, 4 h","17,593 ± 3471 ng/g"
same,concentration at 4 h,"[1]; male, FVB (wild-type), mouse, in vivo, po, 10 mg/kg, Cliver",17600 ng/g
same,AUC(0-t),[1]; [9],30200 ng·h/mL
same,Cmax,[1]; [9],8580 ± 2160 ng/mL
same,Tmax,[1]; [9],1.6 ± 1.2 h
same,AUC(0-t),[1]; [10],36200 ng·h/mL
same,Cmax,[1]; [10],11600 ng/mL
same,Tmax,[1]; [10],1.7 ± 0.52 h
same,concentration at 4 h,"[1]; male, FVB background, Slco1a/1b-/-, mouse, in vivo, po, 10 mg/kg, CSIC (small intestine contents concentration)",141000 ng/g
same,AUC(0-t),[1]; [11],26600 ng·h/mL
same,Cmax,[1]; [11],7860 ± 1810 ng/mL
same,Tmax,[1]; [11],1.8 ± 1.2 h
same,concentration at 4 h,"[1]; male, FVB background, wild-type, mouse, in vivo, po, 10 mg/kg, CSIC (small intestine contents concentration)",91100 ng/g
same,concentration at 4 h,"[1]; male, FVB background, wild-type, mouse, in vivo, po, 10 mg/kg, Cbrain",186 ± 23 ng/g
same,concentration at 4 h,"[1]; male, FVB background, wild-type, mouse, in vivo, po, 10 mg/kg, Ctestis",730 ± 103 ng/g
same,Cmax,[2]; [12],10300 ng/mL
same,Tmax,[2]; [12],1.8 ± 1.3 h
same,Cmax,[2]; [13],11000 ng/mL
same,Tmax,[2]; [13],1.5 ± 1.3 h
same,Cmax,[2]; [14],11400 ng/mL
same,Tmax,[2]; [14],1.4 ± 0.74 h
same,Cmax,[2]; [15],6910 ± 761 ng/mL
same,Tmax,[2]; [15],1.6 ± 1.4 h
same,SIC percentage of dose,[2]; male Abcb1a/1b-/- mice,1.1 ± 0.3%
same,SIC percentage of dose,[2]; male Abcb1a/1b;Abcg2-/- mice,0.69 ± 0.52 %
same,SIC percentage of dose,[2]; male Abcg2-/- mice,1.6 ± 0.7 %
same,SIC percentage of dose,[2]; male wild-type mice,2.3 ± 0.9%
same,concentration at 4 h,"[2]; FVB (Abcb1a/1b-/-), brain, male Abcb1a/1b-/- mice, read-out: Cbrain",2000 ± 233 ng/g
same,concentration at 4 h,"[2]; FVB (Abcb1a/1b;Abcg2-/-), brain, male Abcb1a/1b;Abcg2-/- mice, read-out: Cbrain",4260 ± 853 ng/g
same,AUC(0-t),[2]; [13],39000 ng·h/mL
same,concentration at 4 h,"[2]; FVB (Abcg2-/-), brain, male Abcg2-/- mice, read-out: Cbrain",418 ± 102 ng/g
same,concentration at 4 h,"[2]; FVB (wild-type), brain, male wild-type mice, read-out: Cbrain",420 ± 66 ng/g
same,concentration at 4 h,"[2]; FVB, liver, male Abcb1a/1b-/- mice, read-out: CLiver",34000 ng/g
same,concentration at 4 h,"[2]; FVB, liver, male Abcb1a/1b;Abcg2-/- mice, read-out: CLiver",23200 ng/g
same,concentration at 4 h,"[2]; FVB, liver, male Abcg2-/- mice, read-out: CLiver",19300 ng/g
same,concentration at 4 h,"[2]; FVB, liver, male wild-type mice, read-out: CLiver",25700 ng/g
same,AUC(0-t),"[2]; FVB, male Abcb1a/1b-/- mice",37000 ng·h/mL
same,AUC(0-t),"[2]; FVB, male Abcg2-/- mice",39100 ng·h/mL
same,AUC(0-t),"[2]; FVB, male wild-type mice",23700 ng·h/mL
same,concentration at 4 h,"[2]; FVB, small intestine contents, male Abcb1a/1b-/- mice, read-out: CSIC (small intestine contents concentration)",69400 ng/g
same,concentration at 4 h,"[2]; FVB, small intestine contents, male Abcb1a/1b;Abcg2-/- mice, read-out: CSIC (small intestine contents concentration)",27400 ng/g
same,concentration at 4 h,"[2]; FVB, small intestine contents, male Abcg2-/- mice, read-out: CSIC (small intestine contents concentration)",91700 ng/g
same,concentration at 4 h,"[2]; FVB, small intestine contents, male wild-type mice, read-out: CSIC (small intestine contents concentration)",98100 ng/g
same,concentration at 4 h,"[2]; FVB, small intestine, male Abcb1a/1b-/- mice, read-out: CSI (small intestine tissue concentration)",17000 ng/g
same,concentration at 4 h,"[2]; FVB, small intestine, male Abcb1a/1b;Abcg2-/- mice, read-out: CSI (small intestine tissue concentration)",11600 ng/g
same,concentration at 4 h,"[2]; FVB, small intestine, male Abcg2-/- mice, read-out: CSI (small intestine tissue concentration)",13000 ng/g
same,concentration at 4 h,"[2]; FVB, small intestine, male wild-type mice, read-out: CSI (small intestine tissue concentration)",21600 ng/g
same,concentration at 4 h,"[2]; FVB, testis, male Abcb1a/1b-/- mice, read-out: Ctestis",3480 ± 634 ng/g
same,concentration at 4 h,"[2]; FVB, testis, male Abcb1a/1b;Abcg2-/- mice, read-out: Ctestis",8330 ± 935 ng/g
same,concentration at 4 h,"[2]; FVB, testis, male Abcg2-/- mice, read-out: Ctestis",1050 ± 192 ng/g
same,concentration at 4 h,"[2]; FVB, testis, male wild-type mice, read-out: Ctestis",811 ± 148 ng/g
same,concentration at 8 h,"[3]; Cyp3a-/- (>99% FVB genetic background), CLiver",7900 ± 1270 ng/g
same,concentration at 8 h,"[3]; Cyp3a-/- (>99% FVB genetic background), CSI (small intestine tissue concentration)",6380 ± 930 ng/g
same,concentration at 8 h,"[3]; Cyp3a-/- (>99% FVB genetic background), Cbrain",86.2 ± 24.2 ng/g
same,concentration at 8 h,"[3]; Cyp3aXAV (>99% FVB genetic background), CLiver",4390 ± 755 ng/g
same,concentration at 8 h,"[3]; Cyp3aXAV (>99% FVB genetic background), CSI (small intestine tissue concentration)",5030 ± 347 ng/g
same,AUC(0-t),"[3]; FVB, Cyp3a-/-",72200 ng·h/mL
same,Cmax,"[3]; FVB, Cyp3a-/-",12300 ng/mL
same,Tmax,"[3]; FVB, Cyp3a-/-",1.4 ± 1.3 h
same,SIC percentage of dose,"[3]; FVB, Cyp3a-/-",1.4 ± 0.6 %
same,concentration at 8 h,"[3]; FVB, Cyp3a-/-, CSIC (small intestine contents concentration)",44900 ng/g
same,AUC(0-t),"[3]; FVB, wild-type",52300 ng·h/mL
same,Cmax,"[3]; FVB, wild-type",8560 ± 1300 ng/mL
same,Tmax,"[3]; FVB, wild-type",1.5 ± 1.3 h
same,SIC percentage of dose,"[3]; FVB, wild-type",2.5 ± 0.9%
same,concentration at 8 h,"[3]; FVB, wild-type, CSIC (small intestine contents concentration)",83900 ng/g
same,concentration at 8 h,"[3]; FVB, wild-type, Cbrain",82.4 ± 16.8 ng/g
same,AUC(0-t),[3],45800 ng·h/mL
same,Cmax,[3],9480 ± 548 ng/mL
same,Tmax,[3],0.29 ± 0.1 h
same,SIC percentage of dose,[3],1.5 ± 0.5%
same,concentration at 8 h,[3]; CSIC (small intestine contents concentration),48500 ng/g
same,concentration at 8 h,[3]; Cbrain,51 ± 15.2 ng/g
same,concentration at 8 h,"[3]; wild-type (>99% FVB genetic background), CLiver",8260 ± 1620 ng/g
same,concentration at 8 h,"[3]; wild-type (>99% FVB genetic background), CSI (small intestine tissue concentration)",7300 ± 1120 ng/g
same,abnormal external behavior (acute toxicity),[3],did not observe any abnormal external behavior
same,AUC0–24h,[4],"51,600 ng/mL*h"
same,average Cmax,[4],2980 ng/mL
same,overall response rate,[5],77%
same,overall response rate,[6],45%
same,percentage with an objective intracranial response,CNS metastasis; independent review,91%
same,complete responses (intracranial),CNS metastasis,27%
same,partial responses (intracranial),CNS metastasis,64%
